{"source": "paper PMC9106035", "about": "“Synthesis, X-ray Structure and Biological Studies of New Self-Assembled Cu(II) Complexes Derived from s-Triazine Schiff Base Ligand” (Molecules, 2022)", "system": "C. albicans (RCMB 005003(1) ATCC 10231)", "experiment": "Minimum Inhibitory Concentration (MIC)", "format": "cell-based", "experimental": "Method S2: Antimi crobial studies a) Tested pathogenic microbes\nThe antibacterial a ctivity of the studied ligands and their Cu(II) complexes were evaluated against two Gram positive bacteria ((S. aureus (ATCC 25923) and B. […]\n0.5). In case of fungi A. fumigatus (RCMB 002008) and C. albicans (RCMB 005003(1) ATCC 10231), the used medium in antagonistic activity against tested fungi is Potato Dextrose Agar, where Fluconazole was used standard antifungal agent. […]\nc) Minimum Inhibitory Concentration (MIC)\nDifferent dilutions of the compounds are inoculat ed with tested pathogenic microbes.\nAfter incubation period of 96 well microplate, the results are meas ured using microplate reader. To determine at what level the MIC endpoint is established; subculture of test samples at different concentrati ons occurred in nutrient agar plates."}
{"compound": "CC(=NNc1nc(N2CCOCC2)nc(N2CCOCC2)n1)c1ccccc1[O-].CC(=O)[O-].[Cu+2]", "note": "[Complex 2, [Cu(DMOT)(CH3COO)]]", "values": [{"measurement": "MIC", "value": 5000, "unit": "µg/mL"}]}
